Reference: ChEMBL document CHEMBL1201862, “PubChem BioAssay data set” (2004)
Values joined by “and” are separate entries in the source; they are usually repeats but may differ in a detail not shown here. Identical values can stand only once. Active and inactive are the calls of the source.

Experiments:
[1] = target: T1, Heat shock factor protein 1 (Mus musculus, UniProt P38532); assay: HSF1 potentiators in luciferase reporter cells, confirmation, cell-based, NIH3T3, luminescence, dose retest (AID 435004); assay type: functional;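 note: stress induced by proteasome inhibitor MG132 added 30 min after compound; luciferase reporter driven by HSF1 response element in NIH3T3 cells; actives raise luminescence as potentiators of the MG132 stress response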
T1 sequence (P38532 whole entry): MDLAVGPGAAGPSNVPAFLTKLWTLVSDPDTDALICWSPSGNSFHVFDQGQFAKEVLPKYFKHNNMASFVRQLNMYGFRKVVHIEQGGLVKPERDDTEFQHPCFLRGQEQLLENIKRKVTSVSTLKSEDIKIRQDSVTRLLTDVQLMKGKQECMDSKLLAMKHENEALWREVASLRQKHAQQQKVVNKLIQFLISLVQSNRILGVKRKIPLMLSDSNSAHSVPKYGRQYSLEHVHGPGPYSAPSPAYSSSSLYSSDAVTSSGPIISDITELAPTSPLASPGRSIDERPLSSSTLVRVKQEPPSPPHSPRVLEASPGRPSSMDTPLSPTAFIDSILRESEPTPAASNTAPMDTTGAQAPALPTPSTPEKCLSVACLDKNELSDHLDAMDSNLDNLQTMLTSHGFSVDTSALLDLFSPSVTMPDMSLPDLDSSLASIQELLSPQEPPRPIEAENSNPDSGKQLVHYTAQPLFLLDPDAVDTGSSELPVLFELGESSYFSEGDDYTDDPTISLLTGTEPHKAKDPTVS

[2] = HEp-2 cell cytotoxicity, dose response, cytotoxicity control for RSV inhibitor project, HTS (AID 2410); assay type: functional; conditions: human respiratory syncytial virus
INS1 = assay: beta cell apoptosis inhibitors, cytokine rescue, dose response, luminescence, retest (AID 449756); assay type: functional, cell-based; conditions: Rattus norvegicus;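 note: cell death triggered by IL-1 beta plus TNF-alpha plus IFN-gamma mixture; protective hits raise ATP signal compared with cytokine alone wells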
[3] = inhibitors of firefly luciferase expression or activity, dose response, H4 neuroglioma cells, luminescence (AID 1990); assay type: functional, cell-based
[4] = Luminescence Cell-Based Dose Response HTS to Identify Inhibitors of 5'UTR Stem-Loop Driven Prion Protein mRNA Translation in H4 Neuroglioblastoma Cells. [Related pubchem assays: 1827 (Project Summary), 1813 (Primary HTS)]; assay type: functional
[5] = inhibitors of SNCA 5'UTR-driven reporter translation, confirmation, H4 neuroglioma cells, luminescence (AID 1988); assay type: functional, cell-based
Cytochrome P450 3A4 = Cytochrome P450 3A4 (Homo sapiens, UniProt P08684);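 note: CYP3A4 tested as one member of a cytochrome P450 panel screen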
[6] = system: Streptococcus sp. 'group A'; assay: growth inhibition of control SK(-) GAS strain, dose response, counter-screen for streptokinase expression inhibitor project, luminescence, kanamycin, BacTiterGlo, confirmation (AID 1900); assay type: functional, organism-based
Streptokinase A = target: T2, Streptokinase A (Streptococcus pyogenes serotype M1, UniProt P10520); assay: S. pyogenes streptokinase expression inhibitors, potency, dose response, plasminogen activation absorbance, OD405 (AID 1914); assay type: functional, Streptococcus pyogenes M1 GAS;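 note: secreted streptokinase activity via plasminogen activation per viability signal from cell pellet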
T2 sequence (P10520 whole entry): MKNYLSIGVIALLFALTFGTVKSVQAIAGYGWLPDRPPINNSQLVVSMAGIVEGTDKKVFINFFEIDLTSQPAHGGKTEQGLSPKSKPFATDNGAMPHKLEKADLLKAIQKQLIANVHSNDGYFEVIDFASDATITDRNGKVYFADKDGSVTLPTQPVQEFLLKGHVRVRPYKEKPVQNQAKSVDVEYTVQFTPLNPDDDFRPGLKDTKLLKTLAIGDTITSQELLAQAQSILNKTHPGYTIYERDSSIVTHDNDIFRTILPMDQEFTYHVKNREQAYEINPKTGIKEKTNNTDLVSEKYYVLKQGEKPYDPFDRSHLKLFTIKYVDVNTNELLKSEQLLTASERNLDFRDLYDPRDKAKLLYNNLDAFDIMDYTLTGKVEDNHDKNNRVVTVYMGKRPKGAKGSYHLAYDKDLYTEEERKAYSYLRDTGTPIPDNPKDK

Streptococcus = assay: Group A Streptococcus viability loss, dose response, counter-screen for streptokinase expression inhibitor project, luminescence, BacTiterGlo (AID 1915); assay type: functional, organism-based;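 note: potency for reduction of bacterial viability or growth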
[7] = target: T1, Heat shock factor protein 1; assay: inhibition of MG132-induced HSE-luciferase signal, confirmation, cell-based, NIH3T3, luminescence, dose retest (AID 2382); assay type: functional;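 note: NIH3T3 fibroblasts with HSF1-driven luciferase reporter stressed by proteasome inhibitor MG132; luminescence from HSF1-driven luciferase expression after 8 hours of MG132 stress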
Cytochrome P450 2D6 = Cytochrome P450 2D6 (Homo sapiens, UniProt P10635);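 note: CYP2D6 member of a cytochrome P450 panel assay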
Cytochrome P450 2C19 = Cytochrome P450 2C19 (Homo sapiens, UniProt P33261); assay: Cytochrome panel assay with activity outcomes. Panel member name: p450-cyp2c19 Compounds with AC50 equal or less than 10 uM are considered active; assay type: functional; conditions: read-out: AC50
Sequence of Cytochrome P450 2C19 (P33261 whole entry): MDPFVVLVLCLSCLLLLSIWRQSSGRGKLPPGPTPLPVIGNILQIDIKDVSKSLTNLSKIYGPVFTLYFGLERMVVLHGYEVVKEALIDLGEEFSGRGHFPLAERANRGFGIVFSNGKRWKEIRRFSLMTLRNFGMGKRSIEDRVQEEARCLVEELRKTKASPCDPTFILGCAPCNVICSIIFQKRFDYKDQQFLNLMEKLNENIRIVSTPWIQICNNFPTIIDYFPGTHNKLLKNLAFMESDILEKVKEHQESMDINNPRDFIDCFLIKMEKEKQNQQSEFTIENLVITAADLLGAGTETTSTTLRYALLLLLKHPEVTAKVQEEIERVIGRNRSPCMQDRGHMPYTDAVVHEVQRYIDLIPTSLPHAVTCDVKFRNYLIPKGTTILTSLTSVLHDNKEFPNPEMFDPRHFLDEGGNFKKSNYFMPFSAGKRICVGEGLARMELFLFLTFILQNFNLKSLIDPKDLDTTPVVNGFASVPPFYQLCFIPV

Sequence of Cytochrome P450 3A4 (P08684 whole entry): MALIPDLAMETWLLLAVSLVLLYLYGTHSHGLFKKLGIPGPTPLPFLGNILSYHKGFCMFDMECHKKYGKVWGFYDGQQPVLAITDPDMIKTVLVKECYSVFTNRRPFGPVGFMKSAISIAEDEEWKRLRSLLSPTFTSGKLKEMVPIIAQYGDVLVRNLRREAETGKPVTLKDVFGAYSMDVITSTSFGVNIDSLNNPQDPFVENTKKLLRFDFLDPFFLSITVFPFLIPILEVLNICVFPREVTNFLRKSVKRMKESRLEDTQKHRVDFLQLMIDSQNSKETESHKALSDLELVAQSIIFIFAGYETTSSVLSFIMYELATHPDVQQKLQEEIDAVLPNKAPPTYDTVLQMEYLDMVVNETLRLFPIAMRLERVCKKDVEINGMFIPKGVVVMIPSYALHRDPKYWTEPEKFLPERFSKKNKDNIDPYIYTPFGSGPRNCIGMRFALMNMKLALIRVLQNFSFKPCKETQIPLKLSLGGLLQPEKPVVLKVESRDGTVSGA
Sequence of Cytochrome P450 2D6 (P10635 whole entry): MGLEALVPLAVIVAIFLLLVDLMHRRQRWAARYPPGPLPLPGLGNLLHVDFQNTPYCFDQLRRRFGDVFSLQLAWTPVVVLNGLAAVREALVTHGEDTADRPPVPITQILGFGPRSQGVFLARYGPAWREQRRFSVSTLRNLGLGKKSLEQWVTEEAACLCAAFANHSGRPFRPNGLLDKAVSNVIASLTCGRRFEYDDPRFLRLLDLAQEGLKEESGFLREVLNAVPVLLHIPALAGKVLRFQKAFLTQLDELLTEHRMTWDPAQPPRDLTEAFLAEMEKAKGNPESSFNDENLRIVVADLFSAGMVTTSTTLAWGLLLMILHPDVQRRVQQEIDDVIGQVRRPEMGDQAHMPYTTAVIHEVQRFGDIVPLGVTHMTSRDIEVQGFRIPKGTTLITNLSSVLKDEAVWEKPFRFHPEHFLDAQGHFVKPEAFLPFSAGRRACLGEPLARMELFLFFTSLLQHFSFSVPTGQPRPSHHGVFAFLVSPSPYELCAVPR

In the case of `c1ccc2c(c1)nnn1c3ccccc3nc21`, the EC50 [1] is reported as > 260 µM (inactive).
For `C/C(=N\NC(=O)c1nnn(-c2nonc2N)c1C(C)C)c1cc(C)sc1C`, the CC50 [2] was > 50 µM (active).
In the case of `CCOc1cc(/C=N/NC(=O)c2cc(-c3ccccc3)nc3ccccc23)ccc1O`, the CC50 [2] is reported as 31.8 µM (active).
With `NN=C(S)Nc1ccc(OC(F)(F)F)cc1` the AC50 (INS1) was > 260 µM (inactive).
For `CCN(CC)S(=O)(=O)c1ccc(C(=O)NN(C)C2=NS(=O)(=O)c3ccccc32)cc1`, the EC50 [1] was > 260 µM (inactive).
For `O=C(Nc1cccc2ccccc12)C12CC3CC(C1)CC(n1cnc([N+](=O)[O-])n1)(C3)C2`, the EC50 [3] was 12.9 µM (active), the EC50 [4] was 12.4 µM (active) and the EC50 [5] was > 60 µM (not active).
With `NC[C@@H]1O[C@H](C23CC4CC(CC(C4)C2)C3)Cc2c1ccc(O)c2O` the AC50 (Cytochrome P450 3A4) was 20 µM (inconclusive) and 31.6 µM (inconclusive).
For `CC(=O)Nc1nc(NC(=O)/C=C/c2ccccc2)n(-c2ccccc2)n1`, the EC50 [3] was 14.2 µM (active), the EC50 [6] was 2.47 µM (active) and the EC50 [4] was 13.7 µM (active). For the same molecule, the EC50 [5] was 15.7 µM (active), the EC50 (Streptokinase A) was > 150 µM (not active) and the EC50 (Streptococcus) was 33.9 µM (active).
For `CCC(CO)NCC#Cc1ccccc1` (configuration not stated), the EC50 [1] was > 260 µM (inactive).
In the case of `CSc1ccccc1C(=O)N1CCN(c2ncccn2)CC1`, the EC50 [7] is reported as > 195 µM (not active).
For `O=C(CN1C(=O)/C(=C\c2cccc(Cl)c2)Sc2ccccc21)NCCCN1CCOCC1`, the EC50 [1] was 245 µM (active).
With `CCCC[C@@H]1C[C@H]1C(NC(=O)c1cccnc1)c1ccc(Cl)cc1` (some centres not stated) the AC50 (Cytochrome P450 2D6) was 25.1 µM (inconclusive).
For `Cc1cnc(CNc2ccnc(-c3ccccc3Cl)n2)cn1`, the AC50 (Cytochrome P450 2C19) was 39.8 µM (inconclusive) and the AC50 (Cytochrome P450 3A4) was 10 µM (inconclusive).
With `COc1ccc(-c2nc3cnc(N(C)C)nc3n(Cc3cccs3)c2=O)cc1` the AC50 (Cytochrome P450 3A4) was 12.6 µM (inconclusive).
For `CN1CCN(c2ccc([N+](=O)[O-])cc2NC(=O)c2ccccc2Cl)CC1`, the AC50 (Cytochrome P450 2D6) was 17.8 µM (inconclusive).
For `Fc1cc(F)cc(-c2oncc2-c2nnnn2-c2ccccc2)c1`, the EC50 [7] was > 195 µM (not active).
For `CC(=O)Nc1ccc(-c2nnn(CC(=O)Nc3ccc4c(c3)OCO4)n2)cc1Cl`, the EC50 [7] was > 195 µM (not active).
In the case of `O=S(=O)(Nc1cccc(-n2cnnn2)c1)c1cc(Cl)ccc1Cl`, the EC50 [7] is reported as > 195 µM (not active).
With `C=C(C)CN1CC[C@@]23c4c5ccc(O)c4O[C@H]2c2[nH]c4ccccc4c2C[C@]3(O)[C@@H]1C5` the AC50 (Cytochrome P450 2C19) was 3.16 µM (inconclusive) and the AC50 (Cytochrome P450 3A4) was 31.6 µM (inconclusive).
With `CN(C)c1ccc(/N=N\c2cccc3ccoc23)cc1` the AC50 (Cytochrome P450 2D6) was 3.16 µM (inconclusive) and the AC50 (Cytochrome P450 3A4) was 3.98 µM (inconclusive).
With `COc1cc(/C=N/NC(=O)c2cccnc2)ccc1OC(=O)c1cc(OC)c(OC)c(OC)c1` the AC50 (INS1) was 1.1 µM (active).
With `O=C(CN(Cc1ccco1)Cc1ccco1)Nc1cc(S(=O)(=O)N2CCCCC2)ccc1Cl` the AC50 (INS1) was 7.48 µM (active).
For `COc1ccc(C2C(C#N)=C(N)N(c3ccccc3)C3=C2C(=O)CCC3)cc1Cn1cc([N+](=O)[O-])cn1` (configuration not stated), the EC50 [3] was 13.2 µM (active), the EC50 [4] was 17.1 µM (active) and the EC50 [5] was 105 µM (active).
In the case of `Cc1cc(=O)oc2c(C)c(OC(C)C(=O)NCC(O)c3ccccc3)ccc12` (configuration not stated), the EC50 [1] is reported as > 260 µM (inactive).
With `COc1ccc(C(C)(C)C)cc1NC(=O)c1cncc(Br)c1` the AC50 (Cytochrome P450 2C19) was 10 µM (inconclusive) and the AC50 (Cytochrome P450 3A4) was 11.2 µM (inconclusive).
In the case of `Cc1cccc(OCCCC(=O)Nc2ccc(N3CCCCC3)cc2)c1`, the AC50 (Cytochrome P450 2C19) is reported as 0.355 µM (inconclusive) and the AC50 (Cytochrome P450 3A4) is reported as 7.08 µM (inconclusive).
For `ON=C1c2ccccc2-c2ccccc21`, the EC50 [1] was > 260 µM (inactive).
In the case of `O=[N+]([O-])c1cc([N+](=O)[O-])c(N2CCOCC2)cc1NCc1ccccc1`, the EC50 [1] is reported as > 260 µM (inactive).
